Test results from patent publication US9540646B2, “Cellular targets for HIV infection” (priority 2012, dated 2017).
Entries after “also recorded” stand apart in the source; their conditions may differ.

How the values were obtained:
HIVADA [1] = assay: HIV replication in primary human macrophages, HIV p24 ELISA; assay type: cell-based, Human immunodeficiency virus-1 (HIV)
Description: (§1) Monocyte isolation and macrophage culture: Human monocytes were isolated from leukopaks obtained from the New York Blood Center. Peripheral blood mononuclear cells (PBMCs) were isolated by differential centrifugation using a Ficoll gradient (GE Healthcare, Piscataway, N.J.) and CD14 positive cells were isolated from PBMCs using CD14 monoclonal antibodies that were then bound by magnetic nanoparticles and separated using a magnetic field (Stem Cell Technologies, Vancouver, BC, Canada). Isolated CD14 positive cells were cultured adherently for 6 days in the presence of 10 ng/ml macrophage-colony stimulating factor (PeproTech, Rocky Hill, N.J.) in RPMI 1640 with 10% FBS, 5% human AB serum, 1% P/S, and 10 mM HEPES to differentiate the cells into macrophages.
(§2) HIV replication: After 6 days in culture, macrophages in 48-well plates at a density of 10^5 cells per well were inoculated with 2-20 ng/ml HIVADA, 2 ng/ml HIVYU-2, or 0.2 ng/ml HIVBaL for 24 hours in the presence or absence of purinergic receptor inhibitors. 5 wells were inoculated per condition. After 24 hours, cells were washed with PBS and then cultured with media. Supernatants were collected and medium was changed every 24 hours until 7 days post inoculation (d.p.i.). When the inhibitors oATP, A-740003, MRS 2179, NF 279, BBG, or suramin, were used, they were added when the medium was changed every 24 hours. Viral replication was analyzed by HIV p24 ELISA (Advanced Bioscience Laboratories, Kensington, Md.) according to the manufacturer's instructions

HIVBaL = assay: as above; assay type: cell-based, Human immunodeficiency virus-1 (HIV); details: 100 μM oATP; according to d.p.i.; N=3
Description: as §1, §2

HIVYU-2 = assay: as above; assay type: cell-based, Human immunodeficiency virus-1 (HIV); details: 100 μM oATP; every d.p.i.; N=3
Description: as §1, §2

Macrophages = assay: Cell viability of macrophages, live/dead assay; assay type: cell-based; details: 100 μM, 24 hours
Description: Cells were imaged using a Zeiss AxioObserver.D1 with an LD Plan-Neofluar 20×/0.4 air objective lens. Images were collected at room temperature through a Zeiss AxioCam MRm camera using Axiovision software.

HIVADA [2] = assay: Immunofluorescence, percentage of HIV p24 positive macrophages; assay type: cell-based, Human immunodeficiency virus-1 (HIV); details: 100 μM oATP, 7 d.p.i.
Method: Immunofluorescence: After 6 days in culture, macrophages cultured in 35 mm MatTek dishes at a density of 10^6 cells per dish were inoculated with 20 ng/ml HIVADA for 24 hours in the presence or absence of oATP. Two MatTek dishes were inoculated per condition. After 24 hours, cells were washed with PBS and cultured with media. Fresh oATP was added and the medium was changed every 24 hours until 7 d.p.i. Cells were then fixed using cold 70% ethanol for 20 minutes. Cells were washed with PBS and blocked using 0.9% fish gelatin, 50 μM EDTA. 1% horse serum, and 1% globulin-free albumin. The following primary antibodies were used: mouse monoclonal HIV p24 antibody from Abeam at a 1:50 dilution (Cambridge, Mass.) or mouse myeloma IgG1 (Sigma) as a negative control. Secondary antibody staining was with anti-mouse IgG F(ab)′2 fragment conjugated to FITC (Sigma). Actin was stained using Texas Red-X conjugated to phalloidin (Invitrogen, Eugene, Oreg.). ProLong Gold antifade reagent containing DAPI was added to all cells to stain for nuclei. Cells were imaged using a Zeiss AxioObserver.D1 with an LD Plan-Neofluar 20×/0.4 air objective lens. […] Images for 15 fields per condition were analyzed and percentage of p24 positive cells determined by counting number of nuclei in cells with green cytoplasmic staining.

[3] = test system: β-lactamase containing HIVBaL; assay: HIV Entry Assay (β-lactamase / CCF2-AM) in primary human macrophages; assay type: cell-based, Human immunodeficiency virus-1 (HIV); details: 100 μM; 4 hours; MOI 0.001-0.01; oATP N=5, others N=3
Method: HIV Entry Assay: Primary human macrophages were cultured in black 96-well plates with a clear bottom (Corning Inc., Corning, N.Y.) at a density of 43,000 cells per well. After 7-8 days in culture, cells were inoculated with β-lactamase containing HIVBaL at a multiplicity of infection (MOI) of 0.01, 0.005, or 0.001 in the presence or absence of the purinergic receptor inhibitors oATP, NF 279, A-740003, or MRS 2179 for 4 hours. Beta-lactamase containing HIVBaL was generated as described previously (27). Briefly, HEK-293T cells were transfected using calcium phosphate with two plasmids, one containing the HIVBaL genome, pWT/BaL (NIH repository), the other containing β-lactamase fused to REV vpr, pMM310 (NIH repository). Cells were transfected for 16 hours and then supernatant was collected 24 and 48 hours following transfection. […] Viral stocks were generated by sucrose gradient purification of the transfection supernatants.
Alter viral inoculation of primary human macrophages, cells were washed with phenol red-free DMEM (Gibco) then loaded with CCF2-AM for 6 hours at room temperature using the GeneBLAzer In Vivo Detection Kit (Invitrogen, Carlsbad, Calif.). CCF2-AM fluoresces green due to an internal fluorescence resonance energy transfer, but when cleaved by β-lactamase, this interaction is lost and the molecule fluoresces blue. Cells were imaged using an Olympus IX70 with a Plan 10×/0.25 air objective lens. Images were collected at room temperature through an Olympus E-620LS camera attached to the microscope through an OM adapter MF-1. Images were collected directly onto a memory card and there was no image processing following image collection. Images were collected for 8 fields in 4 separate wells per condition and percentage of cells positive for viral entry was determined by counting the number of blue cells (cells that virus had entered) as compared to the total number of blue and green cells.

purinergic receptors = details: in vivo mouse model; reference 99; cited from earlier work

Nc1ncnc2c1ncn2[C@@H](C=O)O[C@@H](C=O)COP(=O)(O)OP(=O)(O)OP(=O)(O)O [oATP, oxidized ATP]
effect on HIVADA p24 production (HIVADA [1]; 1 μM oATP, N=5): no effect | inhibition of HIVADA p24 production relative to HIV only (HIVADA [1]; 10 μM oATP, depending upon d.p.i., N=5): 50-85% | HIVADA replication reduced (HIV p24) relative to HIV only (HIVADA [1]; 100 μM oATP, depending upon the d.p.i., up to 7 d.p.i., N=10): 92-99% | HIVBaL replication reduced relative to HIV only (HIVBaL): 89-97% | HIVYU-2 replication reduced relative to HIV only (HIVYU-2): over 99% | cell viability (live/dead assay) (Macrophages): None of the antagonist caused any decrease in cell viability; also recorded: did not reduce cell viability | decrease in the percentage of HIV p24 positive cells (HIVADA [2]; 20 ng/ml HIVADA, N=3): 92% | multinucleated giant cells in cultures (HIVADA [2]; HIVADA, compared to HIV infected cultures): very few multinucleated giant cells were detected | reduction in viral entry (percentage of cells with viral entry) relative to HIV only [3]: 57% | onset of diabetes and inflammatory bowel disease (purinergic receptors): can prevent the onset of diabetes and inflammatory bowel disease
